Legend:
[1] = tested on: spinal cord injury model in rats; details: reported in Brain Research, 799, 264-269 (1998); cited from earlier work
blood-CNS barrier = assay: Blood-CNS barrier disruption (Evans blue dye) after spinal cord injury; assay type: in vivo, rat; details: 50 mg/kg injected 15 min before SCI; Evans blue at 6 h after SCI; FIG. 3
Procedure: Disruption of the blood-CNS barrier was assessed according to the method of Uyama et al. [J. Cereb. Blood Flow Metab. 8, 282-284 (1988)] with certain modifications. SCI was induced 15 min after injection of test compound (50 mg/kg). At 6 h after SCI, 4 mL/kg of 2.5% Evans blue dye solution was administered via the femoral vein. One hour later rats were anesthetized by pentobarbital (40 mg/kg) and killed. The T13 spinal cord segment was removed and homogenized in 1 mL of 50% trichloroacetic acid (w/v). After centrifugation the extracted dye was diluted fourfold with ethanol, and its fluorescence was quantified using a spectrophotometer at an excitation wavelength of 620 nm and an emission wavelength of 680 nm.

myeloperoxidase activity = assay: Assay of myeloperoxidase (MPO) activity in T13 spinal cord segment after spinal cord injury; assay type: in vivo, rat; details: administered 15 minutes before spinal cord injury, FIG. 2
Procedure: For assessment of accumulation and infiltration of leukocytes, we measured myeloperoxidase activity according to a modification of the method of Xu et al. (J. neurochem. 55, 907-912 (1990)). The test compound was administrated 15 minutes before spinal cord injury, and then the T13 segments 2, 4, 8, 12 and 24 h after injury were sonicated in 1 mL of 50 mM potassium phosphate buffer (pH 6.0) containing 0.5% […]. The homogenates were centrifuged at 10,000×g for 20 min, and 0.1 mL of the supernatant was added to 0.6 mL of 50 mM potassium phosphate buffer (pH 6.0) containing 0.53 mM o-dianisidine dihydrochrolide and 0.15 mM H2O2. After 5 min, the change in absorbance at 460 nm was monitored with a spectrophotometer (model DU 640, Beckmann, Germany).

CINC-1 protein = assay: Suppression of CINC-1 expression on rat spinal cord injury model; assay type: in vivo; details: Wistar rats; injected via femoral vein 15 min before spinal cord injury; T13 segment; FIG. 1
Procedure: Under anesthesia using pentobarbital (40 mg/kg of body weight), spinal cord injury model was made using Wistar rats weighing 250-300 g according to the operative procedure of Tonai et al. [J. Neurochem. 72, 302-309 (1999)]. At various time intervals after injury, the rats were frozen, and then T13 spinal cord segment was removed for analysis of CINC-1 protein.
The test compound was dissolved in physiologic saline containing 12 mM Na2CO3 and injected via the femoral vein 15 min before spinal cord injury. Saline vehicle alone was administered by the same route in control animals.

[2] = tested on: rat spinal cord injury model; assay: Improvement of dyskinesia, open field walking scale after spinal cord injury; assay type: in vivo; details: 50 mg/kg injected 15 min before SCI; compression injury with 20-g weight; up to 28 days; FIG. 4
Procedure: (§1) SCI was induced 15 min after injection of test compound (50 mg/kg). Dyskinesia was assessed according to an open field walking scale (Behrmann et al., Exp. Neurol. 126, 61-75 (1994)) and an inclined-plane test (Rivlin et al., J. Neurosurg. 47, 577-581 (1977)) using rats subjected to compression injury with a 20-g weight. In the open field walking scale, animals were scored from 0 (no spontaneous movement) to 5 (normal gait) based on 5 min of observation. With the scale, the animal's capability for gross hindlimb movement was evaluated before SCI, every 2 days afterward for 2 weeks beginning on the first day, and later at 21 and 28 days after injury. In the inclined-plane test, a cork mat was fixed to the surface of a movable inclined plane. We recorded the maximal angle of inclined-plane at which the rat could maintain position for […]. This was evaluated before and at 1, 7, 14, 21 and 28 days after injury.

[3] = tested on: rat spinal cord injury model; assay: Improvement of dyskinesia, inclined-plane test after spinal cord injury; assay type: in vivo; details: 50 mg/kg injected 15 min before SCI; compression injury with 20-g weight; up to 28 days; FIG. 5
Procedure: as §1

Compound | efficacy in spinal cord injury model in rats [1] | Blood-CNS barrier disruption (blood-CNS barrier) | myeloperoxidase activity (myeloperoxidase activity; 4 hours after injury) | myeloperoxidase activity (myeloperoxidase activity; 12 hours after injury) | myeloperoxidase activity (myeloperoxidase activity; 24 hours after injury) | CINC-1 protein expression after spinal cord injury (CINC-1 protein) | dyskinesia after spinal cord injury, open field walking scale [2] | dyskinesia after spinal cord injury, inclined-plane test [3]
CO[C@H]1C(=O)N2C(C(=O)N3CCC[C@H]3C(=O)O)=C(COC(C)=O)CS(=O)(=O)[C@H]12 [L 658,758] | effective | – | – | – | – | – | – | –
CC(C)(C)C(=O)Oc1ccc(S(=O)(=O)Nc2ccccc2C(=O)NCC(=O)[O-])cc1.O.O.O.O.[Na+] [compound (X), N-[o-(p-pivaloyloxybenzenesulfonylamino)benzoyl]glycine monosodium salt tetrahydrate] | – | suppressed Blood-CNS barrier disruption significantly | 46 % of control | 61 % of control | 64 % of control | suppressed in dose-dependently | suppressed dyskinesia after spinal cord injury significantly | suppressed dyskinesia after spinal cord injury significantly
Eglin C | effective | – | – | – | – | – | – | –

Reference: US20050101633A1, “Remedial agent for myelopathic disease” (priority 2001, published 2005)
